Test results reported in patent publication US10501493B2, “Broad spectrum antibiotics” (priority 2011, dated 2019).
pKd: −log10 of the molar value. In brackets after ≈: the same amount, converted by molar mass. Where two headings read alike, the source gives them in different places.

Assays:
[1] = tested on: S. epidermidis RP62A SpsIB(S31P); assay: In vitro antimicrobial activity, MIC by broth micro-dilution; assay type: cell-based
[2] = tested on: R. equi DSM 6939; assay: as above; assay type: cell-based
How it was run: (§1)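 CLSI broth micro-dilution MIC against two-fold serial compound dilutions. Inoculum came from colonies grown 24 h at 35° C. or 28° C., suspended in cation-adjusted Mueller Hinton broth at 1*10^7 CFU/ml, of which 5 μl was added per 100 μl well. LepB(P84L) is a proline-mutant SPase strain with heightened arylomycin susceptibility.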

[3] = tested on: S. pneumoniae R800; assay: as above; assay type: cell-based
How it was run: as §1

[4] = tested on: C. glutamicum DSM 44475; assay: as above; assay type: cell-based
[5] = tested on: S. agalactiae COH-1; assay: as above; assay type: cell-based
[6] = tested on: S. epidermidis ATCC 12228; assay: as above; assay type: cell-based
[7] = tested on: S. pyogenes ATCC 19615; assay: as above; assay type: cell-based
[8] = tested on: P. aeruginosa PA01 LepB(P84L); assay: as above; assay type: cell-based
How it was run: as §1

[9] = tested on: S. pyogenes M15448; assay: as above; assay type: cell-based
How it was run: as §1

[10] = tested on: S. aureus ATCC 29213; assay: as above; assay type: cell-based
[11] = tested on: P. aeruginosa PA01; assay: as above; assay type: cell-based
How it was run: as §1

[12] = tested on: S. agalactiae ATCC 13813; assay: as above; assay type: cell-based
[13] = tested on: S. epidermidis RP62A; assay: as above; assay type: cell-based; settings: S. epidermidis RP62A
[14] = tested on: E. coli MIG1655; assay: as above; assay type: cell-based; settings: E. coli MIG1655
How it was run: as §1

[15] = tested on: E. coli MIG1655 LepB(P84L); assay: as above; assay type: cell-based
How it was run: as §1

[16] = tested on: S. epidermidis RP62A SpsIB(S29P); assay: as above; assay type: cell-based
[17] = tested on: S. pneumoniae D39; assay: as above; assay type: cell-based; settings: S. pneumoniae D39
[18] = tested on: S. aureus NCTC-8325 SpsB(P295); assay: as above; assay type: cell-based
[19] = target: T1, S. aureus SPase (Staphylococcus aureus, UniProt P0A070); assay: Steady state binding constant (Kd) determination by fluorescence increase
T1 construct: Full length His-tagged S. aureus SPase protein was expressed similarly; His-tag; made in house; host or cells: E. coli BL21(DE3)
Experimental: (§2) Full length His-tagged E. coli SPase proteins were expressed in E. coli BL21(DE3) containing the plasmid pET23-lepB, P. A. Smith et al. Chem Biol 2010, 1223-1231. Briefly, saturated overnight cultures grown in 20 ml of Luria-Bertani medium supplemented with ampicillin were subcultures into 1.5 L of Luria-Bertani, and shaken at 37° C. until an optical density at 600 nm of 0.4-0.5 was achieved. Protein expression was induced with Isopropyl β-D-1-thiogalactopyranoside (ITPG) at a final concentration of […], and purified using nickel affinity chromatography. Full length His-tagged S. aureus SPase protein was expressed similarly from E. coli BL21(DE3) containing the plasmid pCDF1-SaSpsB or pCDF1-SaSpsB(P29S) and purified similarly to the E. coli protein with the following exceptions. SPase protein was solubilized using 300 mM NaCl, 20 mM Tris pH 8.06, 5 mM Imidazole, 10% glycerol, 1% Triton X-100, prior to purification in Ni-NTA Superflow resin and resin bound protein was washed in a similar buffer containing 1% Elugent in place of Triton X-100 prior to protein eluted in wash buffer supplemented with 300 mM imidazole. Protein purify was judged to exceed 95% by visual inspection of SDS-PAGE followed by Comassie staining. All protein concentrations were determined by BCA assay.
(§3) Steady state binding constants (Kds) of compounds were determined by measuring an increase in fluorescence (λex=280 nm, λem=405 nm) that occurs upon binding to E. coli or S. aureus SPase protein. Two-fold serial dilutions of compounds were prepared in 100% DMSO, and compounds were diluted into binding buffer consisting of 100 mM NaCl, 20 mM Tris-HCl pH 7.4, 1 mM EDTA, 1% n-octyl-3-glucopyranoside (Anatrace), and 10% glycerol, with the final DMSO concentration equal to 1%. 70 μl of the resulting solutions containing various concentrations of compound in binding buffer were aliquoted into triplicate wells of a black polystyrene 384-well plate. 5 μl of blank solution or E. coli or S. aureus protein at concentrations of 750 or 3750 nM respectively, were added to each set of wells for a given inhibitor concentration. Plates were incubated for 14 hours and fluorescence read on an EnVision Multilable plate reader (Perkin Elmer™). Differences in fluorescence values between wells with and without protein were determined and background corrected for protein auto fluorescence. The corrected fluorescence difference data was fit to the quadratic equilibrium binding curve using the non-linear regression analysis software Solver (Frontline Systems®) run in Excel 2010, (Microsoft®), using experimentally determined quantum efficiency constants to convert fluorescence into nanomoles of protein/compound complex.

[20] = target: T2, E. coli SPase (Escherichia coli, UniProt P00803); assay: as above
T2 construct: Full length His-tagged E. coli SPase proteins were expressed in E. coli BL21(DE3); His-tag; made in house; host or cells: E. coli BL21(DE3)
Experimental: as §2, §3

[21] = Streptococcus pneumoniae, read-out: MIC
[22] = Corynebacterium glutamicum, DSM44475, read-out: MIC
[23] = Staphylococcus epidermidis, ATCC12228, read-out: MIC
[24] = Streptococcus pyogenes, ATCC19615, read-out: MIC
[25] = Staphylococcus aureus, ATCC29213, read-out: MIC
[26] = Streptococcus agalactiae, ATCC13813, read-out: MIC
[27] = Staphylococcus epidermidis, read-out: MIC
[28] = Staphylococcus aureus, NCTC8325
[29] = Streptococcus agalactiae, COH1, S. agalactiae COH-1, read-out: MIC
[30] = Streptococcus pyogenes, S. pyogenes M15448, read-out: MIC

SMILES | pKd [19] | pKd [20] | MIC ([1]; Staphylococcus epidermidis) | MIC [3, 21] | MIC [4, 22] | MIC [6, 23] | MIC [7, 24] | MIC ([8]; Pseudomonas aeruginosa) | MIC [10, 25] | MIC [12, 26] | MIC [13, 27] | MIC ([15]; Escherichia coli) | MIC ([16]; Staphylococcus epidermidis) | MIC [17, 21] | MIC [18, 28] | MIC [5, 29] | MIC [9, 30] | further results
CCCCCCCCCCCCCCCC(=O)N[C@H](CC(N)=O)C(=O)N[C@H](C)C(=O)NCC(=O)N(C)[C@@H]1C(=O)N[C@@H](C)C(=O)N[C@H](C(=O)O)Cc2ccc(O)c(c2)-c2cc1ccc2O [Compound 34] | – | – | – | – | – | – | – | – | – | – | – | – | – | – | – | – | – | MIC ([1]; S. epidermidis RP62A SpsIB(S31P)): >64 µg/mL; MIC [2]: >64 µg/mL; MIC [3]: >64 µg/mL; MIC [4]: >64 µg/mL; MIC ([5]; S. agalactiae COH-1): >64 µg/mL; MIC [6]: >64 µg/mL; MIC [7]: >64 µg/mL; MIC ([8]; P. aeruginosa PA01 LepB(P84L)): >64 µg/mL; MIC ([9]; S. pyogenes M15448): >64 µg/mL; MIC [10]: >64 µg/mL; MIC [11]: >64 µg/mL; MIC [12]: >64 µg/mL; MIC [13]: >64 µg/mL; MIC [14]: >64 µg/mL; MIC ([15]; E. coli MIG1655 LepB(P84L)): >64 µg/mL; MIC ([16]; S. epidermidis RP62A SpsIB(S29P)): >64 µg/mL; MIC [17]: >64 µg/mL; MIC ([18]; S. aureus NCTC-8325 SpsB(P295)): >64 µg/mL
CCCCCCCCCCCCCCCC(=O)N(C)[C@H](CO)C(=O)N[C@H](C)C(=O)NCC(=O)N(C)[C@@H]1C(=O)N[C@@H](C)C(=O)N[C@H](C(=O)N[C@H](C)C(=O)O)Cc2ccc(O)c(c2)-c2cc1ccc2O [Compound 19] | 4.74 | 5.55 | > 64 µg/mL | 32 µg/mL (≈ 33.6 µM) | 16 µg/mL (≈ 16.8 µM) | 32 µg/mL (≈ 33.6 µM) | 16 µg/mL (≈ 16.8 µM) | > 64 µg/mL | > 64 µg/mL | 32 µg/mL (≈ 33.6 µM) | 8 µg/mL (≈ 8.4 µM) | 8 µg/mL (≈ 8.4 µM) | > 64 µg/mL | 16 µg/mL (≈ 16.8 µM) | > 64 µg/mL | – | – | MIC ([5]; Streptococcus agalactiae, COH1): > 64 µg/mL; MIC ([9]; Streptococcus pyogenes, M15448): 32 µg/mL (≈ 33.6 µM)
CCCCCCCCCCCCCCCC(=O)N(C)[C@H](CO)C(=O)N[C@H](C)C(=O)NCC(=O)N(C)[C@@H]1C(=O)N[C@@H](C)C(=O)N[C@H](C(=O)N[C@@H](C)C(N)=O)Cc2ccc(O)c(c2)-c2cc1ccc2O [Compound 15] | 5.70 | 5.24 | > 64 µg/mL | 16 µg/mL (≈ 16.8 µM) | > 64 µg/mL | > 64 µg/mL | 16 µg/mL (≈ 16.8 µM) | > 64 µg/mL | > 64 µg/mL | > 64 µg/mL | 2 µg/mL (≈ 2.1 µM) | 8 µg/mL (≈ 8.41 µM) | > 64 µg/mL | 8 µg/mL (≈ 8.41 µM) | 8 µg/mL (≈ 8.41 µM) | > 64 µg/mL | 16 µg/mL (≈ 16.8 µM) | –
CCCCCCCCCCCCCCCC(=O)N(C)[C@H](CO)C(=O)N[C@H](C)C(=O)NCC(=O)N(C)[C@@H]1C(=O)N[C@@H](C)C(=O)N[C@H](C(=O)N[C@@H](C)C(=O)O)Cc2ccc(O)c(c2)-c2cc1ccc2O [Compound 20] | 5.11 | 4.92 | > 64 µg/mL | 32 µg/mL (≈ 33.6 µM) | 64 µg/mL (≈ 67.2 µM) | 32 µg/mL (≈ 33.6 µM) | 32 µg/mL (≈ 33.6 µM) | > 64 µg/mL | > 64 µg/mL | 32 µg/mL (≈ 33.6 µM) | 4 µg/mL (≈ 4.2 µM) | 32 µg/mL (≈ 33.6 µM) | 32 µg/mL (≈ 33.6 µM) | 16 µg/mL (≈ 16.8 µM) | > 64 µg/mL | > 64 µg/mL | 64 µg/mL (≈ 67.2 µM) | –
